Laboratory results taken from patent US20050163814A1, “Granulated phosphoroamido(di) thioates” (priority 2002, published 2005).
Where “and” joins values, the source holds several entries; their conditions need not be identical. Equal entries are not always repeated. Marks after values point to notes of the source that are not given here.

Assays:
Type in all cases: physicochemical
[1] = GE Brightness of acephate powder; details: bulk powder, reflected light
Procedure: A sample of technical grade acephate crystals was obtained (Examples 1 and 3) and compared. […] Half of each sample was analyzed for brightness and particle size distribution.
Milling caused a measurable increase in the brightness of the bulk powder sample as measured by reflected light. Such an increase is visually apparent as a noticeably brighter powder when compared side-by-side under the GE Brightness test.

[2] = Particle size distribution (sieve openings) of acephate technical
Procedure: The other half of the Source B sample was analyzed for particle size distribution as received and with the milling according to the invention. FIG. 1 (unmilled) and FIG. 2 (milled) are graphs of the particle size distributions from the milling process. All values are in terms of weight percent of total sample that could pass through the designated sieve opening.

[3] = Crystal dimensions by visual inspection; details: for Crystal dimensions: length / Crystal dimensions: width: Table 4; for Aspect ratio: length:width; for average crystal length / average width: visual inspection
Excerpt: The unmilled acephate from example 3 was a commercially available technical grade having elongated cylindrical shaped crystals with an average crystal length of 250-500 μm and an average width of 40-100 μm. In contrast, the acephate powder of example 4 was made of substantially cylindrical shaped crystals with an average crystal length of less than about 150 μm and an average width of less than 40 μm.

[4] = up to Sieve Size >177 μm, subject to rounding

COP(=O)(NC(C)=O)SC (centres unmarked) [Ex. 3, acephate, reference compound]
GE Brightness [1]: 90.2
Summary Particle Size Distribution, Range ([2]; Sieve Size 2.3-3.9 μm, listed as Unmilled): 14.55 wt %
Summary Particle Size Distribution, Range ([2]; Sieve Size 4.6-16 μm, listed as Unmilled): 33.43 wt %
Summary Particle Size Distribution, Range ([2]; Sieve Size 4.6-37 μm, listed as Unmilled): 50.51 wt %
Summary Particle Size Distribution, Range ([2]; Sieve Size 4.6-88 μm, listed as Unmilled): 65.44 wt %
Summary Particle Size Distribution, Range ([2]; Sieve Size 19-37 μm, listed as Unmilled): 17.08 wt %
Summary Particle Size Distribution, Range ([2]; Sieve Size 44-88 μm, listed as Unmilled): 14.93 wt %
Summary Particle Size Distribution, Range ([2]; Sieve Size 105-149 μm, listed as Unmilled): 4.97 wt %
Summary Particle Size Distribution, Range ([2]; Sieve Size <1.9 μm, listed as Unmilled): 13.27 wt %
Summary Particle Size Distribution, Range ([2]; Sieve Size <3.9 μm, listed as Unmilled): 27.83 wt %
Summary Particle Size Distribution, Range ([2]; Sieve Size >105 μm, listed as Unmilled): 6.73 wt %
Summary Particle Size Distribution, Range ([2]; Sieve Size >177 μm, listed as Unmilled): 1.76 wt %
Particle Size Distribution ([2]; Size 1.9 μm, listed as Unmilled): 3.6123 weight percent
Particle Size Distribution ([2]; Size 2.3 μm, listed as Unmilled): 1.6125 weight percent
Particle Size Distribution ([2]; Size 2.8 μm, listed as Unmilled): 3.3402 weight percent
Particle Size Distribution ([2]; Size 3.3 μm, listed as Unmilled): 5.0469 weight percent
Particle Size Distribution ([2]; Size 3.9 μm, listed as Unmilled): 4.5533 weight percent
Particle Size Distribution ([2]; Size 4.6 μm, listed as Unmilled): 2.9044 weight percent
Particle Size Distribution ([2]; Size 5.5 μm, listed as Unmilled): 3.2481 weight percent
Particle Size Distribution ([2]; Size 6.5 μm, listed as Unmilled): 5.7966 weight percent
Particle Size Distribution ([2]; Size 7.8 μm, listed as Unmilled): 4.6403 weight percent
Particle Size Distribution ([2]; Size 9.2 μm, listed as Unmilled): 4.2474 weight percent
Particle Size Distribution ([2]; Size 11 μm, listed as Unmilled): 4.6232 weight percent
Particle Size Distribution ([2]; Size 13 μm, listed as Unmilled): 4.6531 weight percent
Particle Size Distribution ([2]; Size 16 μm, listed as Unmilled): 3.3203 weight percent
Particle Size Distribution ([2]; Size 19 μm, listed as Unmilled): 3.2150 weight percent
Particle Size Distribution ([2]; Size 22 μm, listed as Unmilled): 3.1651 weight percent
Particle Size Distribution ([2]; Size 26 μm, listed as Unmilled): 3.7619 weight percent
Particle Size Distribution ([2]; Size 31 μm, listed as Unmilled): 3.7231 weight percent
Particle Size Distribution ([2]; Size 37 μm, listed as Unmilled): 3.2123 weight percent
Particle Size Distribution ([2]; Size 44 μm, listed as Unmilled): 3.0323 weight percent
Particle Size Distribution ([2]; Size 53 μm, listed as Unmilled): 3.3767 weight percent
Particle Size Distribution ([2]; Size 63 μm, listed as Unmilled): 3.2501 weight percent
Particle Size Distribution ([2]; Size 75 μm, listed as Unmilled): 2.8069 weight percent
Particle Size Distribution ([2]; Size 88 μm, listed as Unmilled): 2.4665 weight percent
Particle Size Distribution ([2]; Size 105 μm, listed as Unmilled): 2.0819 weight percent
Particle Size Distribution ([2]; Size 125 μm, listed as Unmilled): 1.5293 weight percent
Particle Size Distribution ([2]; Size 149 μm, listed as Unmilled): 1.3606 weight percent
Particle Size Distribution ([2]; Size 177 μm, listed as Unmilled): 0.7768 weight percent
Particle Size Distribution ([2]; Size 210 μm, listed as Unmilled): 0.4565 weight percent
Particle Size Distribution ([2]; Size 250 μm, listed as Unmilled): 0.2321 weight percent
Particle Size Distribution ([2]; Size 298 μm, listed as Unmilled): 0.1849 weight percent
Particle Size Distribution ([2]; Size <1.9 μm, listed as Unmilled): 9.6625 weight percent
Particle Size Distribution ([2]; Size >298 μm, listed as Unmilled): 0.1068 weight percent
mean particle size ([2]; listed as Unmilled): 30.4 μm
median particle size ([2]; listed as Unmilled): 11.7 μm
Summary Particle Size Distribution, Cumul. ([2]; up to Sieve Size 2.3-3.9 μm, listed as Unmilled): 27.83 wt %
Summary Particle Size Distribution, Cumul. ([2]; up to Sieve Size 4.6-16 μm, listed as Unmilled): 61.26 wt %
Summary Particle Size Distribution, Cumul. ([2]; up to Sieve Size 19-37 μm, listed as Unmilled): 78.34 wt %
Summary Particle Size Distribution, Cumul. ([2]; up to Sieve Size 44-88 μm, listed as Unmilled): 93.27 wt %
Summary Particle Size Distribution, Cumul. ([2]; up to Sieve Size 105-149 μm, listed as Unmilled): 98.24 wt %
Summary Particle Size Distribution, Cumul. ([2]; up to Sieve Size <1.9 μm, listed as Unmilled): 13.27 wt %
Summary Particle Size Distribution, Cumul. [2, 4]: ˜100* wt %
Crystal dimensions: length ([3]; listed as Unmilled): 100-280 μm
Crystal dimensions: width ([3]; listed as Unmilled): 40-50 μm
Aspect ratio ([3]; listed as Unmilled): 2.5-5.6
average crystal length [3]: 250-500 μm
average width [3]: 40-100 μm

COP(=O)(NC(C)=O)SC (centres unmarked) [Ex. 4, acephate]
GE Brightness [1]: 93.7
Summary Particle Size Distribution, Range ([2]; Sieve Size 2.3-3.9 μm, listed as Milled): 15.26 wt %
Summary Particle Size Distribution, Range ([2]; Sieve Size 4.6-16 μm, listed as Milled): 41.93 wt %
Summary Particle Size Distribution, Range ([2]; Sieve Size 4.6-37 μm, listed as Milled): 62.09 wt %
Summary Particle Size Distribution, Range ([2]; Sieve Size 4.6-88 μm, listed as Milled): 71.47 wt %
Summary Particle Size Distribution, Range ([2]; Sieve Size 19-37 μm, listed as Milled): 20.16 wt %
Summary Particle Size Distribution, Range ([2]; Sieve Size 44-88 μm, listed as Milled): 9.39 wt %
Summary Particle Size Distribution, Range ([2]; Sieve Size 105-149 μm, listed as Milled): 1.38 wt %
Summary Particle Size Distribution, Range ([2]; Sieve Size <1.9 μm, listed as Milled): 11.73 wt %
Summary Particle Size Distribution, Range ([2]; Sieve Size <3.9 μm, listed as Milled): 26.99 wt %
Summary Particle Size Distribution, Range ([2]; Sieve Size >105 μm, listed as Milled): 1.54 wt % and 1.68 wt %
Summary Particle Size Distribution, Range ([2]; Sieve Size >177 μm, listed as Milled): 0.30 wt %
Particle Size Distribution ([2]; Size 1.9 μm, listed as Milled): 3.7746 weight percent
Particle Size Distribution ([2]; Size 2.3 μm, listed as Milled): 1.8957 weight percent
Particle Size Distribution ([2]; Size 2.8 μm, listed as Milled): 3.9085 weight percent
Particle Size Distribution ([2]; Size 3.3 μm, listed as Milled): 4.3981 weight percent
Particle Size Distribution ([2]; Size 3.9 μm, listed as Milled): 5.0539 weight percent
Particle Size Distribution ([2]; Size 4.6 μm, listed as Milled): 4.0079 weight percent
Particle Size Distribution ([2]; Size 5.5 μm, listed as Milled): 4.6002 weight percent
Particle Size Distribution ([2]; Size 6.5 μm, listed as Milled): 5.3931 weight percent
Particle Size Distribution ([2]; Size 7.8 μm, listed as Milled): 5.6669 weight percent
Particle Size Distribution ([2]; Size 9.2 μm, listed as Milled): 6.1254 weight percent
Particle Size Distribution ([2]; Size 11 μm, listed as Milled): 6.0030 weight percent
Particle Size Distribution ([2]; Size 13 μm, listed as Milled): 5.4418 weight percent
Particle Size Distribution ([2]; Size 16 μm, listed as Milled): 4.6925 weight percent
Particle Size Distribution ([2]; Size 19 μm, listed as Milled): 4.8575 weight percent
Particle Size Distribution ([2]; Size 22 μm, listed as Milled): 4.9085 weight percent
Particle Size Distribution ([2]; Size 26 μm, listed as Milled): 4.4529 weight percent
Particle Size Distribution ([2]; Size 31 μm, listed as Milled): 3.4498 weight percent
Particle Size Distribution ([2]; Size 37 μm, listed as Milled): 2.4873 weight percent
Particle Size Distribution ([2]; Size 44 μm, listed as Milled): 2.0818 weight percent
Particle Size Distribution ([2]; Size 53 μm, listed as Milled): 2.3280 weight percent
Particle Size Distribution ([2]; Size 63 μm, listed as Milled): 2.2067 weight percent
Particle Size Distribution ([2]; Size 75 μm, listed as Milled): 1.5439 weight percent
Particle Size Distribution ([2]; Size 88 μm, listed as Milled): 1.2313 weight percent
Particle Size Distribution ([2]; Size 105 μm, listed as Milled): 0.8371 weight percent
Particle Size Distribution ([2]; Size 125 μm, listed as Milled): 0.4144 weight percent
Particle Size Distribution ([2]; Size 149 μm, listed as Milled): 0.1331 weight percent
Particle Size Distribution ([2]; Size 177 μm, listed as Milled): 0.1199 weight percent
Particle Size Distribution ([2]; Size 210 μm, listed as Milled): 0.0486 weight percent
Particle Size Distribution ([2]; Size 250 μm, listed as Milled): 0.132 weight percent
Particle Size Distribution ([2]; Size 298 μm, listed as Milled): 0.0000 weight percent
Particle Size Distribution ([2]; Size <1.9 μm, listed as Milled): 7.9543 weight percent
Particle Size Distribution ([2]; Size >298 μm, listed as Milled): 0.0000 weight percent
mean particle size ([2]; listed as Milled): 19.1 μm
median particle size ([2]; listed as Milled): 10.3 μm
Summary Particle Size Distribution, Cumul. ([2]; up to Sieve Size 2.3-3.9 μm, listed as Milled): 26.99 wt %
Summary Particle Size Distribution, Cumul. ([2]; up to Sieve Size 4.6-16 μm, listed as Milled): 68.92 wt %
Summary Particle Size Distribution, Cumul. ([2]; up to Sieve Size 19-37 μm, listed as Milled): 89.07 wt %
Summary Particle Size Distribution, Cumul. ([2]; up to Sieve Size 44-88 μm, listed as Milled): 98.46 wt %
Summary Particle Size Distribution, Cumul. ([2]; up to Sieve Size 105-149 μm, listed as Milled): 99.85 wt %
Summary Particle Size Distribution, Cumul. ([2]; up to Sieve Size <1.9 μm, listed as Milled): 11.73 wt %
Summary Particle Size Distribution, Cumul. [2, 4]: ˜100* wt %
Crystal dimensions: length ([3]; listed as Milled): 40-90 μm
Crystal dimensions: width ([3]; listed as Milled): 20-25 μm
Aspect ratio ([3]; listed as Milled): 2-3.6
average crystal length [3]: less than 150 μm
average width [3]: less than 40 μm
